Data: US7186825B2, “Conformationally restricted polyamine analogs as disease therapies” (Cellgate, Inc., priority 1999, dated 2007)
Counter-ions that a name gives are not always drawn. Like-named read-outs stand apart in the source and are kept apart here.

What was measured:
[1] = tested on: human prostate cancer cells PC3; assay: MTT assay, survival/growth of cultured human prostate cancer cells PC3; format: cell-based; conditions: for EC50: figure legends, survival of cultured PC3 cells, MTT, six days after drug treatment, read-out: ED50 (the source's name); for IC50: read-out: concentration needed for 50% growth inhibition (ID50), Table 3, PC-3
Protocol: (§1) Human breast cancer cell line MCF7 was grown in Richter's Improved Modified Eagle's Medium supplemented with 10% fetal bovine serum (FBS) and 2.2 g/L sodium bicarbonate. Human brain tumor cell line U251 MG-NCI was grown in Dulbecco's Modified Eagle's Medium supplemented with 10% FBS. Human lung cancer cell line A549 was grown in Ham's F-12K medium (Cellgro, Mediatech, Inc., VA), supplemented with 10% FBS and 2 mM L-glutamine. Human colon cancer cell line HT29 was cultured in McCoy's 5A medium (Gibco, BRL, Gaithersburg, Md.) supplemented with 10% FBS. Human prostate cancer cell lines PC-3, LNCAP and DuPro were grown in RPMI 1640 Medium (Cellgro, Mediatech, Inc., VA) supplemented with 10% FBS. Another human prostate cancer cell line DU145 was grown in Dulbecco's Modified Eagle's Medium (Gibco, BRL, Gaithersburg, Md.) supplemented with 5% FBS. The A549, MCF7, PC3, LNCAP and DuPro cell lines were cultured in 100 units/mL penicillin and 100 μg/mL streptomycin. HT29 and U251MG cell lines were grown in 50 μg/mL gentamycin (Gibco, BRL, Gaithersburg, Md.). DU145 cell line was maintained in 1% antibitic-antimycotic solution (Sigma, St. Louis, Mo.). The cell cultures were maintained at 37° C. in 5% CO2/95% humidified air. DuPro cells were obtained from M. Eileen Dolan, University of Chicago. All other cells are available from the American Type Culture Collection, Rockville, Md.
(§2) A conventional MTT assay was used to evaluate percent cell survival. Exponentially growing monolayer cells were plated in 96-well plates at a density of 500 cells per well and allowed to grow for 24 hours. Serial dilutions of the drugs were added to the wells. Six days after drug treatment, 25 μl of MTT solution (5 mg/ml) was added to each well and incubated for 4 hours at 37° C. Then 100 μl of lysis buffer (20% sodium dodecyl sulfate, 50% DMF, and 0.8% acetic acid, pH 4.7) was added to each well and incubated for an additional 22 hours. A microplate reader (“EMAX”-brand, Molecular Devices, Sunnyvale, Calif.) set at 570 nm was used to determine the optical density of the cultures. Results are expressed as a ratio of the optical density in drug-treated wells to the optical density in wells treated with vehicle only.
(§3) Using the protocols of Example 2, the porphyrin-polyamine conjugates were tested for activity in vitro in various cancer cell lines.

[2] = tested on: human prostate cancer cells DU145; assay: MTT assay, survival/growth of cultured human prostate cancer cells DU145; format: cell-based; conditions: for EC50: figure legends, survival of cultured DU145 cells, MTT, six days after drug treatment, read-out: ED50 (the source's name); for IC50: read-out: concentration needed for 50% growth inhibition (ID50), Table 3, DU-145
Protocol: as §1, §2, §3

[3] = tested on: human prostate cancer cells LNCAP; assay: MTT assay, survival/growth of cultured human prostate cancer cells LNCAP; format: cell-based; conditions: figure legends, survival of cultured LNCAP cells, six days after drug treatment, read-out: ED50 (the source's name)
Protocol: as §1, §2, §3

[4] = tested on: human colon cancer cells HT29; assay: MTT assay, survival/growth of cultured human colon cancer cells HT29; format: cell-based; conditions: for EC50: figure legends, survival of cultured HT29 cells, MTT, six days after drug treatment, read-out: ED50 (the source's name); for IC50: read-out: concentration needed for 50% growth inhibition (ID50), Table 3, HT-29
Protocol: (§4) As shown in Table 3 and FIGS. 1–32, several novel conformationally restricted polyamine analogs were tested for anti-proliferative properties against cancer cells.
as §1, §2

[5] = tested on: human lung cancer cells A549; assay: MTT assay, survival/growth of cultured human lung cancer cells A549; format: cell-based; conditions: for EC50: figure legends, survival of cultured A549 cells, MTT, six days after drug treatment, read-out: ED50 (the source's name); for IC50: read-out: concentration needed for 50% growth inhibition (ID50); for IC50 / concentration needed for 50% growth inhibition (ID50): Table 3, A549
Protocol: as §4, §1, §2

[6] = tested on: human prostate cancer cells DUPRO; assay: MTT assay, survival/growth of cultured human prostate cancer cells DUPRO; format: cell-based; conditions: for EC50: figure legends, survival of cultured DUPRO cells, MTT, six days after drug treatment, read-out: ED50 (the source's name); for IC50: read-out: concentration needed for 50% growth inhibition (ID50), Table 3, DUPRO
Protocol: as §1, §2, §3

[7] = tested on: human breast cancer cells MCF7; assay: MTT assay, survival/growth of cultured human breast cancer cells MCF7; format: cell-based; conditions: for EC50: figure legends, survival of cultured MCF7 cells, MTT, six days after drug treatment, read-out: ED50 (the source's name); for IC50: read-out: concentration needed for 50% growth inhibition (ID50), Table 3, MCF7
Protocol: as §4, §1, §2

[8] = tested on: human brain tumor cells U251 MG NCI; assay: MTT assay, survival/growth of cultured human brain tumor cells U251 MG NCI; format: cell-based; conditions: for EC50: figure legends, survival of cultured U251 MG NCI cells, MTT, six days after drug treatment, read-out: ED50 (the source's name); for IC50: read-out: concentration needed for 50% growth inhibition (ID50), Table 3, U251MG
Protocol: as §1, §2

| SMILES | EC50 [1] [nM] | EC50 [2] [nM] | EC50 [3] [nM] | EC50 [5] [nM] | EC50 ([1]; Homo sapiens, PC-3, 144 h) [nM] | IC50 ([1]; Homo sapiens) [nM] | EC50 ([2]; Homo sapiens, DU-145, 144 h) [nM] | IC50 ([2]; Homo sapiens) [nM] | EC50 ([6]; Homo sapiens, 144 h) [nM] | IC50 ([6]; Homo sapiens) [nM] | EC50 ([3]; Homo sapiens, 144 h) [nM] | IC50 ([4]; Homo sapiens) [nM] | EC50 ([5]; Homo sapiens, 144 h) [nM] | IC50 ([5]; Homo sapiens) [nM] | IC50 [1] [nM] | IC50 [2] [nM] | IC50 [6] [nM] | IC50 [4] [nM] | IC50 [7] [nM] | EC50 [8] [nM] | also measured |
| --- | --- | --- | --- | --- | --- | --- | --- | --- | --- | --- | --- | --- | --- | --- | --- | --- | --- | --- | --- | --- | --- |
| CCNCCCCNCCCCNCCCCNCCCC1=C(C)c2cc3[nH]c(cc4nc(cc5[nH]c(cc1n2)c(CCCNCCCCNCCCCNCCCCNCC)c5C)C(CC)=C4C)c(CC)c3C (as salt: hydrochloride) [SL-11202] | – | – | – | – | – | – | – | – | – | – | – | – | – | – | – | – | – | – | – | – | melting point: 200 °C |
| CCNCCCCNCCCCNCCCCNCC [BE-444, N1,N14-bis(ethyl) homospermine, reference compound] | 700 | 30 | 100 | 150 | – | – | – | – | – | – | – | – | – | – | – | – | – | – | – | – | EC50 [4]: 930 nM |
| CCNCCCCNCCCCNCCCCNCCCCNCC [BE-4444, 1,19-bis(ethylamino)-5,10,15-triazanonadecane, reference compound] | – | – | – | – | 600 | 540 | 70 | 70 | 200 | 200 | 140 | 800 | > 31200 | 400 | – | – | – | – | – | – | EC50 ([4]; Homo sapiens, HT-29, 144 h): 500 nM; EC50 ([7]; Homo sapiens, 144 h): > 31200 nM; IC50 ([7]; Homo sapiens): > 31200 nM |
| CCNCCCCNCC1CC1CNCCCCNCC (centres unmarked) [SL-11093] | 1600 | 16 | 210 | 260 | – | – | – | – | – | – | – | – | – | – | 14300 | 10 | 60 | 400 | 660 | 70 | IC50 [5]: 260 nM; EC50 [7]: 660 nM |
| CCNCCCCNCC1CC1CNCCCCNCC (centres unmarked) [SL-11098] | 1400 | 20 | 170 | 290 | – | – | – | – | – | – | – | – | – | – | 1400 | 18 | 80 | 400 | > 31200 | 100 | concentration needed for 50% growth inhibition (ID50) [5]: 510 nM; IC50 [8]: 100 nM |
| CCNCCCCNCC1CCC1CNCCCCNCC (centres unmarked) [SL-11099] | 2500 | 14 | 210 | 510 | – | – | – | – | – | – | – | – | – | – | 2500 | 14 | 80 | 1000 | 26300 | 110 | EC50 [6]: 80 nM; concentration needed for 50% growth inhibition (ID50) [5]: 650 nM; EC50 [7]: 26300 nM; IC50 [8]: 110 nM |
| CCNCCCCNCC1CCC1CNCCCCNCC (centres unmarked) [SL-11100] | 4700 | 21 | 700 | 650 | – | – | – | – | – | – | – | – | – | – | 4700 | 21 | 290 | 2000 | > 31200 | 220 | EC50 [6]: 300 nM; concentration needed for 50% growth inhibition (ID50) [5]: 2200 nM; IC50 [8]: 220 nM |
| CCNC/C=C\CNC/C=C\CNC/C=C\CNCC [SL-11108] | 2200 | 130 | 7700 | – | – | – | – | – | – | – | – | – | – | – | 2200 | 130 | 980 | 2000 | > 31200 | 2000 | EC50 [6]: 980 nM; concentration needed for 50% growth inhibition (ID50) [5]: >31250 nM; IC50 [8]: 2000 nM |
| CCNC/C=C\CNCCCCNC/C=C\CNCC [SL-11114] | – | – | – | – | 700 | 700 | 130 | 135 | 640 | 640 | 3000 | 3600 | > 31200 | > 31200 | – | – | – | – | – | – | – |
| CCNC/C=C\CNCCCCNCCCCNCC [SL-11118] | – | – | – | – | 1650 | 1650 | 50 | 50 | 250 | 250 | 210 | 980 | 214 | 210 | – | – | – | – | – | – | – |
| CCNC/C=C\CNCCCCNCCCCNCCCCNCC [SL-11121] | – | – | – | – | 520 | 520 | 80 | 80 | 400 | 400 | 140 | 800 | > 31200 | > 31200 | – | – | – | – | – | – | EC50 ([7]; Homo sapiens, 144 h): 17000 nM; IC50 ([7]; Homo sapiens): 17000 nM |
| CCNC/C=C\CNC/C=C\CNC/C=C\CNC/C=C\CNCC [SL-11126] | – | – | – | – | 200 | 200 | 510 | 510 | 1100 | 1100 | 550 | 1500 | > 31200 | > 31200 | – | – | – | – | – | – | EC50 ([7]; Homo sapiens, 144 h): 700 nM; IC50 ([7]; Homo sapiens): 700 nM |
| CCNC/C=C\CNCCCCNCCCCNC/C=C\CNCC [SL-11128] | – | – | – | – | 500 | 500 | 140 | 140 | 1280 | 1250 | 300 | 1350 | – | – | – | – | – | – | – | – | – |
